The term pIC50 denotes the IC50 on a negative log10 scale, so that one unit is a factor of ten.

pIC50: −log10 of the molar value. Where a name gives a salt, the structure may show the parent alone.

One experiment concerns serum TNFα. Briefly: In vivo LPS-induced TNFα production (serum TNFα, ELISA). Details: species or system Male BALB/c mice. Conditions: 5.0 ng/kg (so in the source), orally 90 min before LPS (7.5 mg/kg i.p.), serum 2 h after LPS. The method, then:
2. In vivo LPS-induced TNFα production Male BALB/c mice (18-20 g) were obtained from Harlan-Nossan (Correzzana, Italy); Lipopolysaccharide (LPS) from S. enteritidis (code L-6011) was from Sigma (St. Louis, Mo.); Dexamethasone (Soldesam) from Laboratorio Farmacologico Milanese (Caronno P., Italy).
Mice were treated i.p. with LPS (S. enteritidis, 7.5 mg/kg). Dexamethasone was administered i.p. 30 min. before LPS. Compounds were administered orally 90 min. before LPS. Two hours after LPS administration the anaesthetized animals were sacrificed, blood was collected by cardiac puncture and allowed to coagulate. Serum TNFα was measured by ELISA with "mouse Reagent Sets" (Genzyme, Cambridge, Mass.) according to the manufacturer's instructions and using mouse recombinant TNFα as standard.
On to `CCN(CC)Cc1ccc2cc(COC(=O)Nc3ccc(C(=O)NO)cc3)ccc2c1` [Example 12, hydrochloride], for which the “Inhibition (%)” value amounted to 64.3% and the TNFα stood at 407 pg/mL.

The experiment is the same for the next values; noted with them: 0.5 mg/kg, orally 90 min before LPS (7.5 mg/kg i.p.), serum 2 h after LPS.
Take `CCN(CC)Cc1ccc2cc(COC(=O)Nc3ccc(C(=O)NO)cc3)ccc2c1` [Example 12, hydrochloride]: the “Inhibition (%)” value is recorded as 55.0% and the TNFα is 514 pg/mL.

Staying with this experiment, now noted: 30 mg/kg, i.p. 30 min before LPS (7.5 mg/kg i.p.), serum 2 h after LPS.
As to `C[C@@H]1C[C@H]2[C@@H]3CCC4=CC(=O)C=C[C@]4(C)[C@@]3(F)[C@@H](O)C[C@]2(C)[C@@]1(O)C(=O)CO` [Dexamethasone, reference compound], the “Inhibition (%)” value amounted to 90.2% and the TNFα came out at 112 pg/mL.

In a further experiment the test system is human IL-1β. Briefly: In vitro cytokines production test (LPS-stimulated human PBMC, IL-1β ELISA). It is filed as cell-based. The conditions noted are these: 10 ng/ml LPS, 60 min pretreatment, 20 hours culture, read-out: IC50 (inhibition of IL-1β production). The method, then:
1. In vitro cytokines production test
The compounds of the invention were tested by in particular on the production of human IL-1β. Mononuclear cells (PBMC) were prepared from peripheral blood ("buffy coat") from healthy donors, by centrifugation over density gradient Ficoll-Hypaque (Biochrom KG, Berlin, Germany). The cells (2,5×10^6 for ml) were cultured at 37° C. under humid atmosphere containing 5% CO2 in 96-wells plates (Nunc) at a final volume of 200 μl. […] The production of cytokines was induced by stimulating the cells with 10 ng/ ml of LPS (lipopolysaccharide) from E. coli serotype 055:B5 (Sigma Chemical Co., St. Louis. Mo.). The cells were pretreated with the compounds of the intention dissolved in DMSO (final concentration: 0.05% […]) for 60 minutes. The compounds and LPS were present during the whole 20 hours of culture. As the negative control, not-stimulated cells were used. At the end of the test, supernatants were collected and the IL-1β production was tested by a specific ELISA assay ("sandwich-type antigen capture", R & D System, Minneapolis, Minn.; all of the tests were carried out in duplicate). A goat polyclonal serum specific for human IL-1β was used, purified by affinity, to cover the 96-wells microtitration plates (Nunc). After washing, the wells were incubated for 2 hours with 3% of boyine serum albumine (BSA) in buffered saline. Recombinant human IL-1β was used to obtain a standard curve for each test and the supernatant samples were diluted to 1/20 and 1/80 with PBS+0.1% of BSA. The plates were then incubated at 4° C. overnight. After washing, the secondary antibody was added, i.e. an anti- human lL-1β murine monoclonal antibody. After incubation and washing, a goat anti-murine Ig-G polyclonal antibody peroxidase-conjugated (Zymed) was added, then the chromogenic substrate tetramethylbenzidine dichloride (Sigma). The reaction was stopped with 4N H2 SO4 and the absorbance at 450 nm was measured with an automatic spectrophotometer (Perkin-Elmer).
(In an ELISA, binding on a coated surface is turned into a signal by an enzyme label.)
For `O=C(CCCCc1ccccc1)Nc1ccc(C(=O)NO)cc1` [Example 1, 4-(5-Phenylpentanamido)benzohydroxamic acid], the pIC50 was 6.52.
`O=C(NCc1ccc(C(=O)NO)cc1)OCC(c1ccccc1)c1ccccc1` [Example 2, 4-[2,2-(Diphenyl)ethoxycarbamoylmethyl]benzohydroxamic acid]: the pIC50 was 6.79.
Still for that read-out and setting: then `O=C(Nc1ccc(C(=O)NO)cc1)OCCC12CC3CC(CC(C3)C1)C2` [Example 3], with 6.27; and `O=C(Nc1ccc(C(=O)NO)cc1)OCc1cccc2ccccc12` [Example 4], with 7.55; and `O=C(Nc1ccc(C(=O)NO)cc1)OCC1CCc2ccccc2C1` (stereo not shown) [Example 5], with 6.86.
`O=C(Nc1ccc(C(=O)NO)cc1)OCCCc1ccccc1` [Example 6]: the pIC50 is 7.37.
Take `O=C(Nc1ccc(C(=O)NO)cc1)OCc1ccc2ccccc2c1` [Example 7]: the pIC50 is 7.92.
`O=C(Nc1ccc(C(=O)NO)cc1)OC/C=C/c1ccccc1` [Example 8]: the pIC50 was 7.54.
On to `O=C(Nc1ccc(C(=O)NO)cc1)OC/C=C\c1ccccc1` [Example 9], for which the pIC50 is 7.14.
With `O=C(Nc1ccc(C(=O)NO)cc1)OCCC(c1ccccc1)c1ccccc1` [Example 10], the pIC50 is 7.00.
In the case of `CCN(CC)Cc1ccc2cc(COC(=O)Nc3ccc(C(=O)NO)cc3)ccc2c1` [Example 12, hydrochloride], the pIC50 was 7.02.
For the molecule `CCCN(CCC)Cc1ccc2cc(COC(=O)Nc3ccc(C(=O)NO)cc3)ccc2c1` [Example 13, hydrochloride], the negative logarithm of the IC50 (pIC50) was 6.78.
Still for that read-out and setting: then `CCCCN(CCCC)Cc1ccc2cc(COC(=O)Nc3ccc(C(=O)NO)cc3)ccc2c1` [Example 14, hydrochloride], with 6.42.
Still for that read-out and setting: the same measure for `CCN(CC)Cc1ccc(COC(=O)Nc2ccc(C(=O)NO)cc2)c2ccccc12` [Example 15, hydrochloride]: 7.85; for `CCN(CC)Cc1ccc2cc(CNC(=O)Nc3ccc(C(=O)NO)cc3)ccc2c1` [Example 16, hydrochloride]: 8.00.
On to `CC(C)N1Cc2ccccc2CC1COC(=O)NCc1ccc(C(=O)NO)cc1` (stereo not shown) [Example 17, 4-[N-isopropyl-1,2,3,4-tetrahydroisoquinol-3-yl)methyloxycarbamoylmethyl]benzohydroxamic acid hydrochloride], for which the pIC50 is 7.68.

The record behind these values is patent US6034096A, “Compounds with anti-inflammatory and immunosuppressive activities” (Italfarmaco S.p.A., priority 1996, dated 2000).
